# Data published in patent US11976064B2, “Toll-like receptor agonists” (Pfizer Inc., priority 2019, dated 2024).
# Molecular target: T1, human toll like receptor 8 (hTLR8) (Homo sapiens, UniProt Q9NR97)
# T1 construct: host or cells: HEK293 (HEK-Blue hTLR8)
# T1 sequence (Q9NR97 27-1041): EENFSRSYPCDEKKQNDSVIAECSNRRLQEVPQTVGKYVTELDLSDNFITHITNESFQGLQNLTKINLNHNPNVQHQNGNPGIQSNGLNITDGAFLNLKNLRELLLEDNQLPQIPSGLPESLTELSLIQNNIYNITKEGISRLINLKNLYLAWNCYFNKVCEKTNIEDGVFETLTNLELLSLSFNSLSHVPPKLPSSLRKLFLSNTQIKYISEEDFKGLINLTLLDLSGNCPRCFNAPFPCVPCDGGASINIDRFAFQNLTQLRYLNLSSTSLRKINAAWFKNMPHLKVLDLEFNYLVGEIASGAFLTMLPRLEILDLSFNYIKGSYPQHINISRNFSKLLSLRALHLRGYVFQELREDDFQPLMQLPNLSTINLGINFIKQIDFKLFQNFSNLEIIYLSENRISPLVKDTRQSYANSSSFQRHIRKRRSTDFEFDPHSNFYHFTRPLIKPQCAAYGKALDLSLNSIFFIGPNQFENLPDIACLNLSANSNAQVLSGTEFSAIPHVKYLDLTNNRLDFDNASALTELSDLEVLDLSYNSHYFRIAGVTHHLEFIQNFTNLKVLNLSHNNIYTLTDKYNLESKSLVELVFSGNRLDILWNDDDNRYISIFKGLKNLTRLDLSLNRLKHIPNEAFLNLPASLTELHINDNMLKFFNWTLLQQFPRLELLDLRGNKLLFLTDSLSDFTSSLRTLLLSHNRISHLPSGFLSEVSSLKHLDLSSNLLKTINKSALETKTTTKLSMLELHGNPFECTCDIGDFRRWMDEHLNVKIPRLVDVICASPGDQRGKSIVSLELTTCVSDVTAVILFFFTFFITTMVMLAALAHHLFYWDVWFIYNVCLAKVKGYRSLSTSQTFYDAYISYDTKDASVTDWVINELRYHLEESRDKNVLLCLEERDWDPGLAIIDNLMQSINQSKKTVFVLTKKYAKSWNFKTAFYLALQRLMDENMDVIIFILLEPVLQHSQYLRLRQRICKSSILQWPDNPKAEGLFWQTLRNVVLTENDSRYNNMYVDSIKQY
# Test: hTLR8 cell functional assay (HEK-Blue hTLR8 SEAP reporter)
# Format: cell-based
# Settings: HEK293 cells stably overexpressing hTLR8, SEAP reporter; geometric mean when tested more than once
# Procedure: The Examples described were tested for biological activity in functional cellular assays using HEK293 cells stably overexpressing human TLR7 or TLR8. The assays tested for the ability of each Example to stimulate secretion of interferon alpha (IFNα) in human primary blood mono nuclear cells (PBMC).
# To determine the ability of each Example to activate the human toll like receptor 7 (hTLR7) or human toll like receptor 8 (hTLR8), cell-based reporter systems were utilized. HEK293 cells stably overexpressing either hTLR7 or hTLR8 along with a reporter gene containing an optimized secreted embryonic alkaline phosphatase gene (SEAP), under the control of the IFN-b minimal promoter fused to five NF-κB and AP-1-binding sites, were obtained from Invivogen (HEK-Blue™ hTLR7, cat #Hkb-ht1r7; HEK-Blue™ hTLR8, cat #Hkb-ht1r8). Stimulation of hTLR7 or hTLR8 in these cells activates NF-κB and AP-1 and induces the production of SEAP which can be quantified using an alkaline phosphatase detection reagent.
# Cells were maintained in Dulbecco's Modified Eagle Media (DMEM) (containing Fetal Bovine Serum (FBS) heat inactivated (10%), Glutamax (2 mM), Penicillin/Streptomycin, Blasticidin (10 μg/ml), Zeocin (100 μg/ml) and Normocin (100 μg/ml)). On day one of the assay, Examples were prepared using 11-point half-log serial dilutions from a 10mM DMSO stock solution and 50 nl was spotted into 384-well Viewplates (PerkinElmer, cat #6007480). Positive control TLR7/8 agonist and negative control (DMSO, no Example) were also spotted within the assay plate and were used to determine percent effect during the analysis process. After resuspension in DMEM assay media containing FBS heat inactivated (10%), Glutamax (2 mM) and Penicillin/Streptomycin, 10,000 cells/20 μl/well were added to previously prepared plates. Plates were incubated overnight (16-20 hrs) at 37° C. in a 5% CO2 environment. Prewetted Microclime lids (Labcyte, LLS-0310) were used to prevent evaporation. On day two of the assay, QUANTI-Blue™ detection reagent was prepared by reconstituting QUANTI-Blue™ powder (InvivoGen, Rep-qb1) with 100 ml of sterile water and allowed to equilibrate to 37° C. for 15 minutes. 20 μl of QUANTI-Blue™ detection reagent was added to each well and plates were incubated at room temperature for 180 min. At the end of the incubation, plates were read on an Envision (Perkin Elmer) plate reader capturing absorbance at 650 nm.
# Using Positive (TLR7/8 agonist) and Negative (DMSO) controls, the percent (%) effect was calculated for each Example using the following equation: effect=100−[100*{(Example−Positive Control)/(Negative Control−Positive Control)}]
# The % effect at each concentration of each Example was calculated utilizing the ABase software suite (IBDS) and was relative to the amount of SEAP produced in the positive and negative control wells contained within each assay plate. The concentrations and % effect values for each Example were fit using a 4-parameter logistic model in ABase and the concentration of each Example that produced 50% response (EC50) was calculated.
row,EC50,SMILES
1,6400 nM,"CCOCc1nc2c(N)nc(C)c(C)c2n1CC(C)(CO)COC (single isomer, unassigned) [Example 6, 3-(4-amino-2-(ethoxymethyl)-6,7-dimethyl-1H-imidazo[4,5-c]pyridin-1-yl)-2-(methoxymethyl)-2-methylpropan-1-ol]"
2,16500 nM,"CCOCc1nc2c(N)nc(C)c(C)c2n1CC(C)(CO)COC (single isomer, unassigned) [Example 7, 3-(4-amino-2-(ethoxymethyl)-6,7-dimethyl-1H-imidazo[4,5-c]pyridin-1-yl)-2-(methoxymethyl)-2-methylpropan-1-ol]"
3,2550 nM,"CCOCc1nc2c(N)nc(C)c(C)c2n1CC(CO)CO [Example 1, 2-((4-amino-2-(ethoxymethyl)-6,7-dimethyl-1H-imidazo[4,5-c]pyridin-1-yl)methyl)propane-1,3-diol]"
4,811 nM,"CCOCc1nc2c(N)nc(C)c(C)c2n1CC(C)(CO)CO [Example 2, 2-((4-amino-2-(ethoxymethyl)-6,7-dimethyl-1H-imidazo[4,5-c]pyridin-1-yl)methyl)-2-methylpropane-1,3-diol]"
5,194 nM,"CCOCc1nc2c(N)nc3ccccc3c2n1CC(C)(CO)CO [Example 3, 2-((4-amino-2-(ethoxymethyl)-1H-imidazo[4,5-c]quinolin-1-yl)methyl)-2-methylpropane-1,3-diol]"
6,8020 nM,"Cc1nc(N)c2nc(CC(F)(F)F)n(CC(C)(CO)CO)c2c1C [Example 8, 2-((4-amino-6,7-dimethyl-2-(2,2,2-trifluoroethyl)-1H-imidazo[4,5-c]pyridin-1-yl)methyl)-2-methylpropane-1,3-diol]"
7,1440 nM,"CCOCc1nc2c(N)nc(C)c(C)c2n1CC(CC)(CO)CO [Example 9, 2-((4-amino-2-(ethoxymethyl)-6,7-dimethyl-1H-imidazo[4,5-c]pyridin-1-yl)methyl)-2-ethylpropane-1,3-diol]"
8,92 nM,"CCCCc1nc2c(N)nc3ccccc3c2n1CC(C)(CO)CO [Example 10, 2-((4-amino-2-butyl-1H-imidazo[4,5-c]quinolin-1-yl)methyl)-2-methylpropane-1,3-diol]"
9,104 nM,"CCCCc1nc2c(N)nc3c(c2n1CC(C)(CO)CO)CCCC3 [Example 13, 2-((4-amino-2-butyl-6,7,8,9-tetrahydro-1H-imidazo[4,5-c]quinolin-1-yl)methyl)-2-methylpropane-1,3-diol]"
10,247 nM,"CCCCc1nc2c(N)nc3c(c2n1CC(C)(CO)CO)CCC3 [Example 14, 2-((4-amino-2-butyl-7,8-dihydrocyclopenta[b]imidazo[4,5-d]pyridin-1(6H)-yl)methyl)-2-methylpropane-1,3-diol]"
11,613 nM,"CCc1nc2c(N)nc3ccccc3c2n1CC(C)(CO)CO [Example 15, 2-((4-amino-2-ethyl-1H-imidazo[4,5-c]quinolin-1-yl)methyl)-2-methylpropane-1,3-diol]"
12,325 nM,"CCCc1nc2c(N)nc3ccccc3c2n1CC(C)(CO)CO [Example 16, 2-((4-amino-2-propyl-1H-imidazo[4,5-c]quinolin-1-yl)methyl)-2-methylpropane-1,3-diol]"
